These compounds were tested on prokaryotic transcription-translation (E. coli S30 extract) (assay: In vitro assay for inhibition of prokaryotic transcription-translation (Promega E. coli S30 Extract System, pBESTluc luciferase readout)). Settings: 2 uM compound, 2 h at 37° C., luciferase luminescence.
Type: biochemical
Procedure: In vitro assay for inhibition of prokaryotic transcription-translation [as described in the following references: 1. Zubay, G. (1973) In vitro synthesis of protein in microbial systems. Annu. Rev. Genet. 7, 267.87. 2. Zubay, G. (1980) The isolation and properties of CAP, the catabolite gene activator. Meth. Enzymol. 65, 856.77]. Antibiotic and compound dilutions: stock solutions of compound to be assayed at 2 μM are 80 μM in 40% DMSO. Stock solutions of compounds to be assayed at 10 μM are 400 μM in 40% DMSO.
Assay setup and protocol for Promega E. coli S30 Extract System
The assay is performed as follows: pipet 3.5 μl of 286 ng/μl template DNA (pBESTluc™) into assay wells. Negative control wells receive sdH2O only. Transfer 0.5 μl of 40× compound stock solution to assay wells. Positive control wells (no compound) receive 0.5 μl 40% DMSO sdH2O. Pipet 16 μl of master mix into assay wells. Incubate plate for two hours at 37° C. Rapidly chill the assay plate on ice for five minutes to stop the reaction. Add an equal volume (20 μl) of room temperature Steady-Glo® Luciferase assay reagent to all assay wells. Incubate 20 minutes and read light emitted with luminometer. Results are reported as % inhibition a 2 μM or 10 μM.

| Compound | % inh. @ 2 uM |
| --- | --- |
| CNC(=O)C[C@@H]1NC(=O)c2csc(n2)-c2ccc(-c3nc(NC(=O)CC[C@H](CC(=O)O)C(=O)O)cs3)nc2-c2csc(n2)-c2csc(n2)[C@H]([C@@H](O)c2ccccc2)NC(=O)CNC(=O)c2nc(sc2COC)C(C(C)C)NC(=O)c2nc1sc2C (stereo partly shown) [Compound 1] | 2 uM = 65.4% |
| CNC(=O)C[C@@H]1NC(=O)c2csc(n2)-c2ccc(-c3nc(NC(=O)CC[C@@H](CC(=O)O)C(=O)O)cs3)nc2-c2csc(n2)-c2csc(n2)[C@H]([C@@H](O)c2ccccc2)NC(=O)CNC(=O)c2nc(sc2COC)C(C(C)C)NC(=O)c2nc1sc2C (stereo partly shown) [Compound 2] | 2 uM = 72.8% |
| CNC(=O)C[C@@H]1NC(=O)c2csc(n2)-c2ccc(-c3nc(N(CCCC(=O)O)C(=O)OCCCC(=O)O)cs3)nc2-c2csc(n2)-c2csc(n2)[C@H]([C@@H](O)c2ccccc2)NC(=O)CNC(=O)c2nc(sc2COC)C(C(C)C)NC(=O)c2nc1sc2C (stereo partly shown) [Compound 3] | 2 uM = 67.8% |
| CNC(=O)C[C@@H]1NC(=O)c2csc(n2)-c2ccc(-c3nc(N(CCCC(=O)O)C(=O)O[C@H]4CC[C@H](C(=O)O)CC4)cs3)nc2-c2csc(n2)-c2csc(n2)[C@H]([C@@H](O)c2ccccc2)NC(=O)CNC(=O)c2nc(sc2COC)C(C(C)C)NC(=O)c2nc1sc2C (stereo partly shown) [Compound 4] | 2 uM = 85.3% |
| CNC(=O)C[C@@H]1NC(=O)c2csc(n2)-c2ccc(-c3nc(N(CCCCCCC(=O)O)C(=O)O[C@H]4CC[C@H](C(=O)O)CC4)cs3)nc2-c2csc(n2)-c2csc(n2)[C@H]([C@@H](O)c2ccccc2)NC(=O)CNC(=O)c2nc(sc2COC)C(C(C)C)NC(=O)c2nc1sc2C (stereo partly shown) [Compound 5] | 2 uM = 78.5% |
| CNC(=O)C[C@@H]1NC(=O)c2csc(n2)-c2ccc(-c3nc(N(CCCCC(=O)O)C(=O)O[C@H]4CC[C@H](C(=O)O)CC4)cs3)nc2-c2csc(n2)-c2csc(n2)[C@H]([C@@H](O)c2ccccc2)NC(=O)CNC(=O)c2nc(sc2COC)C(C(C)C)NC(=O)c2nc1sc2C (stereo partly shown) [Compound 6] | 2 uM = 86.8% |
| CNC(=O)C[C@@H]1NC(=O)c2csc(n2)-c2ccc(-c3nc(N(CCCCCC(=O)O)C(=O)O[C@H]4CC[C@H](C(=O)O)CC4)cs3)nc2-c2csc(n2)-c2csc(n2)[C@H]([C@@H](O)c2ccccc2)NC(=O)CNC(=O)c2nc(sc2COC)C(C(C)C)NC(=O)c2nc1sc2C (stereo partly shown) [Compound 7] | 2 uM = 86.0% |
| CNC(=O)C[C@@H]1NC(=O)c2csc(n2)-c2ccc(-c3nc(N(CCCC(=O)O)C(=O)CCCCC(=O)O)cs3)nc2-c2csc(n2)-c2csc(n2)[C@H]([C@@H](O)c2ccccc2)NC(=O)CNC(=O)c2nc(sc2COC)C(C(C)C)NC(=O)c2nc1sc2C (stereo partly shown) [Compound 8] | 2 uM = 59.7% |
| CNC(=O)C[C@@H]1NC(=O)c2csc(n2)-c2ccc(-c3nc(N(CCCCC(=O)O)C(=O)O[C@H]4C[C@H](C(=O)O)C4)cs3)nc2-c2csc(n2)-c2csc(n2)[C@H]([C@@H](O)c2ccccc2)NC(=O)CNC(=O)c2nc(sc2COC)C(C(C)C)NC(=O)c2nc1sc2C (stereo partly shown) [Compound 9] | 2 uM = 67.1% |
| CNC(=O)C[C@@H]1NC(=O)c2csc(n2)-c2ccc(-c3nc(N(CCCCC(=O)O)C(=O)[C@H]4CC[C@H]4C(=O)O)cs3)nc2-c2csc(n2)-c2csc(n2)[C@H]([C@@H](O)c2ccccc2)NC(=O)CNC(=O)c2nc(sc2COC)C(C(C)C)NC(=O)c2nc1sc2C (stereo partly shown) [Compound 10] | 2 uM = 2.0% |
| CNC(=O)C[C@@H]1NC(=O)c2csc(n2)-c2ccc(-c3nc(NC(=O)N4C[C@H](CCC(=O)O)C[C@H](CCC(=O)O)C4)cs3)nc2-c2csc(n2)-c2csc(n2)[C@H]([C@@H](O)c2ccccc2)NC(=O)CNC(=O)c2nc(sc2COC)C(C(C)C)NC(=O)c2nc1sc2C (stereo partly shown) [Compound 11] | 2 uM = 92.3% |
| CNC(=O)C[C@@H]1NC(=O)c2csc(n2)-c2ccc(-c3nc(N(CCCC(=O)O)C(=O)CCCCCC(=O)O)cs3)nc2-c2csc(n2)-c2csc(n2)[C@H]([C@@H](O)c2ccccc2)NC(=O)CNC(=O)c2nc(sc2COC)C(C(C)C)NC(=O)c2nc1sc2C (stereo partly shown) [Compound 12] | 2 uM = 82.4% |
| CNC(=O)C[C@@H]1NC(=O)c2csc(n2)-c2ccc(-c3nc(N(CCCCC(=O)O)C(=O)OCc4ccc(C(=O)O)cn4)cs3)nc2-c2csc(n2)-c2csc(n2)[C@H]([C@@H](O)c2ccccc2)NC(=O)CNC(=O)c2nc(sc2COC)C(C(C)C)NC(=O)c2nc1sc2C (stereo partly shown) [Compound 13] | 2 uM = 74.9% |
| CNC(=O)C[C@@H]1NC(=O)c2csc(n2)-c2ccc(-c3nc(N(CCCC(=O)O)C(=O)c4ccc(C(=O)O)cn4)cs3)nc2-c2csc(n2)-c2csc(n2)[C@H]([C@@H](O)c2ccccc2)NC(=O)CNC(=O)c2nc(sc2COC)C(C(C)C)NC(=O)c2nc1sc2C (stereo partly shown) [Compound 14] | 2 uM = 55.5% |
| CNC(=O)C[C@@H]1NC(=O)c2csc(n2)-c2ccc(-c3nc(N(CCCC(=O)O)C(=O)C[C@H]4CC[C@H](C(=O)O)CC4)cs3)nc2-c2csc(n2)-c2csc(n2)[C@H]([C@@H](O)c2ccccc2)NC(=O)CNC(=O)c2nc(sc2COC)C(C(C)C)NC(=O)c2nc1sc2C (stereo partly shown) [Compound 15] | 2 uM = 64.5% |
| CNC(=O)C[C@@H]1NC(=O)c2csc(n2)-c2ccc(-c3nc(N(CCCCC(=O)O)C(=O)[C@H]4CC[C@H](C(=O)O)CC4)cs3)nc2-c2csc(n2)-c2csc(n2)[C@H]([C@@H](O)c2ccccc2)NC(=O)CNC(=O)c2nc(sc2COC)C(C(C)C)NC(=O)c2nc1sc2C (stereo partly shown) [Compound 16] | 2 uM = 64.3% |
| CNC(=O)C[C@@H]1NC(=O)c2csc(n2)-c2ccc(-c3nc(N(CCCCC(=O)O)C(=O)C[C@H]4CC[C@H](C(=O)O)CC4)cs3)nc2-c2csc(n2)-c2csc(n2)[C@H]([C@@H](O)c2ccccc2)NC(=O)CNC(=O)c2nc(sc2COC)C(C(C)C)NC(=O)c2nc1sc2C (stereo partly shown) [Compound 17] | 2 uM = 63.9% |
| CNC(=O)C[C@@H]1NC(=O)c2csc(n2)-c2ccc(-c3nc(N(CCCCC(=O)O)C(=O)N[C@H]4CC[C@H](C(=O)O)CC4)cs3)nc2-c2csc(n2)-c2csc(n2)[C@H]([C@@H](O)c2ccccc2)NC(=O)CNC(=O)c2nc(sc2COC)C(C(C)C)NC(=O)c2nc1sc2C (stereo partly shown) [Compound 18] | 2 uM = 52.7% |
| CNC(=O)C[C@@H]1NC(=O)c2csc(n2)-c2ccc(-c3nc(N(C/C=C/C(=O)O)C(=O)O[C@H]4CC[C@H](C(=O)O)CC4)cs3)nc2-c2csc(n2)-c2csc(n2)[C@H]([C@@H](O)c2ccccc2)NC(=O)CNC(=O)c2nc(sc2COC)C(C(C)C)NC(=O)c2nc1sc2C (stereo partly shown) [Compound 19] | 2 uM = 76.4% |
| CNC(=O)C[C@@H]1NC(=O)c2csc(n2)-c2ccc(-c3nc(N(CC(CC(=O)O)OC)C(=O)O[C@H]4CC[C@H](C(=O)O)CC4)cs3)nc2-c2csc(n2)-c2csc(n2)[C@H]([C@@H](O)c2ccccc2)NC(=O)CNC(=O)c2nc(sc2COC)C(C(C)C)NC(=O)c2nc1sc2C (stereo partly shown) [Compound 20] | 2 uM = 80.6% |
| CNC(=O)C[C@@H]1NC(=O)c2csc(n2)-c2ccc(-c3nc(N(CCCCC(=O)O)C(=O)N4CCC(C(=O)O)CC4)cs3)nc2-c2csc(n2)-c2csc(n2)[C@H]([C@@H](O)c2ccccc2)NC(=O)CNC(=O)c2nc(sc2COC)C(C(C)C)NC(=O)c2nc1sc2C (stereo partly shown) [Compound 21] | 2 uM = 37.4% |
| CNC(=O)C[C@@H]1NC(=O)c2csc(n2)-c2ccc(-c3nc(NC(=O)N(CCCC(=O)O)CCCC(=O)O)cs3)nc2-c2csc(n2)-c2csc(n2)[C@H]([C@@H](O)c2ccccc2)NC(=O)CNC(=O)c2nc(sc2COC)C(C(C)C)NC(=O)c2nc1sc2C (stereo partly shown) [Compound 22] | 2 uM = 79.8% |
| CNC(=O)C[C@@H]1NC(=O)c2csc(n2)-c2ccc(-c3nc(NC(=O)N(CCCC(=O)O)[C@H]4CC[C@H](C(=O)O)CC4)cs3)nc2-c2csc(n2)-c2csc(n2)[C@H]([C@@H](O)c2ccccc2)NC(=O)CNC(=O)c2nc(sc2COC)C(C(C)C)NC(=O)c2nc1sc2C (stereo partly shown) [Compound 23] | 2 uM = 79.8% |
| CNC(=O)C[C@@H]1NC(=O)c2csc(n2)-c2ccc(-c3nc(N(CCOCC(=O)O)C(=O)O[C@H]4CC[C@H](C(=O)O)CC4)cs3)nc2-c2csc(n2)-c2csc(n2)[C@H]([C@@H](O)c2ccccc2)NC(=O)CNC(=O)c2nc(sc2COC)C(C(C)C)NC(=O)c2nc1sc2C (stereo partly shown) [Compound 24] | 2 uM = 70.3% |
| CNC(=O)C[C@@H]1NC(=O)c2csc(n2)-c2ccc(-c3nc(N(CCCCC(=O)O)C(=O)O[C@H]4CC[C@](CCCCC(=O)O)(C(=O)OC)CC4)cs3)nc2-c2csc(n2)-c2csc(n2)[C@H]([C@@H](O)c2ccccc2)NC(=O)CNC(=O)c2nc(sc2COC)C(C(C)C)NC(=O)c2nc1sc2C (stereo partly shown) [Compound 25] | 2 uM = 83.7% |
| CNC(=O)C[C@@H]1NC(=O)c2csc(n2)-c2ccc(-c3nc(N(CCCCC(=O)O)C(=O)OC(CCCCC(=O)O)CCC(=O)O)cs3)nc2-c2csc(n2)-c2csc(n2)[C@H]([C@@H](O)c2ccccc2)NC(=O)CNC(=O)c2nc(sc2COC)C(C(C)C)NC(=O)c2nc1sc2C (stereo partly shown) [Compound 26] | 2 uM = 68.2% |
| CNC(=O)C[C@@H]1NC(=O)c2csc(n2)-c2ccc(-c3nc(N(CCCCC(=O)O)C(=O)OCC4CC4C(=O)O)cs3)nc2-c2csc(n2)-c2csc(n2)[C@H]([C@@H](O)c2ccccc2)NC(=O)CNC(=O)c2nc(sc2COC)C(C(C)C)NC(=O)c2nc1sc2C (stereo partly shown) [Compound 27] | 2 uM = 81.9% |
| CNC(=O)C[C@@H]1NC(=O)c2csc(n2)-c2ccc(-c3nc(N(CCCCC(CCC(=O)O)C(=O)O)C(=O)O[C@H]4CC[C@H](C(=O)O)CC4)cs3)nc2-c2csc(n2)-c2csc(n2)[C@H]([C@@H](O)c2ccccc2)NC(=O)CNC(=O)c2nc(sc2COC)C(C(C)C)NC(=O)c2nc1sc2C (stereo partly shown) [Compound 28] | 2 uM = 77.0% |

Source: patent publication US9492496B2, “Aminothiazoles and their uses” (Novartis AG, priority 2007, dated 2016)
